Reference: paper PMC9135253, “Potential of phenothiazines to synergistically block calmodulin and reactivate PP2A in cancer cells” (PLoS ONE, 2022)
pIC50: −log10 of the molar value. “And” between values parts separate entries of the source, which are not always exact repeats. Identical values can stand only once. Like-named read-outs stand apart in the source and are kept apart here.

Legend:
Format in all cases: cell-based
[1] = tested on: NCI-H358 (KRAS-G12C) 3D spheroids; assay: 3D spheroid formation assay (alamarBlue), NCI-H358; details: read-out: IC50 values
Method: (§1) 3D spheroid formation assays were performed in 96-well low-attachment, suspension culture plates (cat. no. 655185, Cellstar, Greiner Bio-One) under serum free conditions. About 1000 cells per well were seeded in 50 μL RPMI medium (cat. no. 52400–025, Gibco, ThermoFisher Scientific) containing 0.5% (v/v) MethoCult (cat. no. SF H4636, Stemcell technologies), 1X B27 (cat. no. 17504044, Gibco, ThermoFisher Scientific), 25 ng/mL EGF (cat. no. E9644, Sigma-Aldrich) and 25 ng/ mL FGF (cat. no. RP-8628, ThermoFisher Scientific). Cells were cultured for 3 days and then treated with compounds or vehicle control (DMSO 0.1% (v/v) in growth medium) for another 3 days. The cells were supplemented with fresh growth medium on the third day together with the drug treatment. Spheroid formation efficiency was analyzed by alamarBlue assay reagent (cat. no. DAL1100, ThermoFisher Scientific).
(§2) A 10% (v/v) final volume of alamarBlue reagent was added to each well of the plate and incubated for 4 h at 37°C. Then the fluorescence intensity (λexcitation 560 ± 5 nm and λemission 590 ± 5 nm) was measured using the FLUOstar OPTIMA plate reader (BMG Labtech, Germany).
(§3) (A) Heatmap of ATARiS gene sensitivity scores of two KRAS dependent cell lines (NCI-H358 and MDA-MB-231) and a BRAF dependent cell line (A375). Negative values (shaded red) indicate sensitivity of the cell line proliferation to the knockdown of shown genes, whereas positive scores (shaded blue) indicate insensitivity. (B) IC50 values for indicated compounds in Ras pathway mutant cell lines NCI-H358, MDA-MB231 and A375 grown as 3D spheroids under serum free conditions. […] Statistical comparisons were done using the average values across all three cell lines. […] Positive scores indicate synergistic drug interactions whereas negative scores would denote antagonistic drug interactions. A score of zero would indicate no antagonistic or synergistic effect. (D) Flow cytometric analysis of apoptosis in MDA-MB-231 cells. […] Benzethonium chloride and DMSO treated cells were used as positive and negative controls, respectively, for setting the gates. Percentage of total apoptotic cells (early and late stage) from two biological repeats (mean ± SD) is presented. Statistical analysis was performed using Fisher’s exact test comparing the total number of viable and apoptotic cells from two biological repeats. (E) Effect of inhibitors on cellular apoptosis studied using Caspase-3/7Glo assay. […] The caspase-3/7 activity was measured as a luminescence read-out and normalized to the vehicle control, 0.05% (v/v) DMSO. […] GAPDH detection was used as loading control.

[2] = tested on: A375 (BRAF-V600E) 3D spheroids; assay: 3D spheroid formation assay (alamarBlue), A375
Method: as §1, §2, §3

[3] = tested on: MDA-MB-231 (KRAS-G13D) 3D spheroids; assay: 3D spheroid formation assay (alamarBlue), MDA-MB-231; details: read-out: IC50 values
Method: as §1, §2, §3

MDA-MB-231 cells [4] = assay: Flow cytometry-based apoptosis assay (Annexin V-FITC / 7-AAD); details: for apoptotic cells (%): DT-061 10 μM, calmidazolium 5 μM or combination, 24 h
Method: MDA-MB-231 cells were grown for 24 h in complete RPMI medium. The next day the cells were treated with inhibitors for 24 h. […] The cells were labelled using the Annexin V-FITC / 7-AAD apoptosis-detection kit (Beckman-Coulter, cat. no. B60224-AB) according to the manufacturer’s instruction.
as §3, with “Negative” for “(A) Heatmap of ATARiS gene sensitivity scores of two KRAS dependent cell lines (NCI-H358 and MDA-MB-231) and a BRAF dependent cell line (A375). Negative”

[5] = tested on: caspase-3/7 activity in MDA-MB-231 cells; assay: Caspase-3/7Glo assay; details: 24 h
Description: as §3, with “Negative” for “(A) Heatmap of ATARiS gene sensitivity scores of two KRAS dependent cell lines (NCI-H358 and MDA-MB-231) and a BRAF dependent cell line (A375). Negative”

[6] = tested on: K-RasG12V (Rluc8-/GFP2-tagged) in HEK-293 EBNA cells; assay: K-RasG12V nanoclustering-BRET assay; details: for effect on the RasG12V-BRET signals (in words): K-RasG12V and H-RasG12V biosensors; for K-RasG12V BRET: compounds 20 μM, FTI-277 1 μM, OphA 2.5 μM, 24 h
[7] = tested on: H-RasG12V (Rluc8-/GFP2-tagged) in HEK-293 EBNA cells; assay: H-RasG12V nanoclustering-BRET assay; details: for H-RasG12V BRET: compounds 20 μM, FTI-277 1 μM, OphA 2.5 μM, 24 h
[8] = tested on: c-MYC in MDA-MB-231 cells; assay: Western blot of c-MYC expression; details: 24 h
[9] = tested on: pERK/ERK in MIA PaCa-2 cells; assay: Western blot of MAPK signaling output (pERK/ERK)
MDA-MB-231 cells [10] = assay: 2D cell viability assay (alamarBlue), MDA-MB-231; details: MDA-MB-231, 72 h
MIA PaCa-2 cells = assay: 2D cell viability assay (alamarBlue), MIA PaCa-2; details: MIA PaCa-2, 72 h
HEK-293 EBNA cells = assay: 2D cell viability assay (alamarBlue), HEK-293 EBNA; details: 72 h
[11] = DT-061 5 μM, calmidazolium 5 μM, combination 5 μM each, staurosporine 1 μM, normalized to DMSO, replicates
[12] = K-RasG12V nanoclustering-BRET dose response (0.1–80 μM; OphA 0.3–20 μM), replicates
[13] = K-RasG12V nanoclustering-BRET, mean
[14] = H-RasG12V nanoclustering-BRET dose response (0.1–80 μM; OphA 0.3–20 μM), replicates
[15] = H-RasG12V nanoclustering-BRET, mean
[16] = 10 μM, MDA-MB-231, replicates N1-N4
[17] = 20 μM, MDA-MB-231, replicates N1-N4, values marked * excluded
[18] = MIA PaCa-2 + EGF, same treatments, mean

Structure (SMILES) | caspase 3/7 activity (fold change) [5, 11] | caspase 3/7 activity (fold change) ([5]; same treatments, mean) | effect on the RasG12V-BRET signals (in words) [6] | DSS3 BRET score [6, 12] | DSS3 BRET score [6, 13] | K-RasG12V BRET ([6]; mean) | DSS3 BRET score [7, 14] | DSS3 BRET score [7, 15] | H-RasG12V BRET ([7]; mean) | c-MYC/Vinculin relative expression [8, 16] | c-MYC/Vinculin relative expression ([8]; 10 μM, Mean (DMSO 1.78)) | c-MYC/Vinculin relative expression [8, 17] | c-MYC/Vinculin relative expression ([8]; 20 μM, Mean (DMSO 1.48)) | normalized pERK/ERK ratio % [9, 18] [%] | other results
O=S(=O)(N[C@@H]1CCC[C@H](N2c3ccccc3Oc3ccccc32)[C@H]1O)c1ccc(OC(F)(F)F)cc1 [DT-061] | 0.9556 fold change and 1.016 fold change | 0.99 | Neither the PP2A activator DT-061, nor Flu had an effect | 0.6 and 1 | 0.8 | 100.53 | 0.2 and 0.4 | 0.3 | 100.52 | 1.352 and 1.842 and 0.8895 and 1.57 | 1.41 | 1.784* and 1.955* and 0.7599 and 0.9549 | 0.86 | 73.35 | pIC50 ([1]; Homo sapiens, NCI-H358, 72 h, NCI-H358 3D spheroids, serum free, 3 days treatment, replicates N1, N2): 5.62; pIC50 ([1]; Homo sapiens, NCI-H358, NCI-H358 3D spheroids, Mean, n = 2): 5.58; pIC50 ([1]; NCI-H358 3D spheroids, serum free, 3 days treatment, replicates N1, N2): 5.54; pIC50 ([2]; A375 3D spheroids, serum free, 3 days treatment, replicates N1, N2): 5.57; pIC50 ([2]; Homo sapiens, A-375, 72 h, A375 3D spheroids, serum free, 3 days treatment, replicates N1, N2): 5.82; pIC50 ([2]; Homo sapiens, A-375, A375 3D spheroids, Mean, n = 2): 5.68; pIC50 ([3]; Homo sapiens, MDA-MB-231, 72 h, MDA-MB-231 3D spheroids, serum free, 3 days treatment, replicates N1, N2): 5.52; pIC50 ([3]; Homo sapiens, MDA-MB-231, MDA-MB-231 3D spheroids, Mean, n = 2): 5.52; pIC50 ([3]; MDA-MB-231 3D spheroids, serum free, 3 days treatment, replicates N1, N2): 5.51; apoptotic cells (%) (MDA-MB-231 cells [4]; early and late stage, replicates N1, N2): 17.3843% and 7.228%; apoptotic cells (%) (MDA-MB-231 cells [4]; mean): 12.31%; apoptotic cell population (MDA-MB-231 cells [4]; MDA-MB-231, 24 h): 12%; K-RasG12V BRET ([6]; A/D plasmid ratio 4/1, individual replicates N1.1-N3.4): 102.439 and 101.315 and 102.277 and 100.953 and 98.6605 and 100.047 and 101.073 and 97.4843; H-RasG12V BRET ([7]; A/D plasmid ratio 4/1, individual replicates N1.1-N2.4): 100.79 and 100.058 and 101.294 and 101.06 and 100.674 and 100.693 and 99.8758 and 99.7238; normalized pERK/ERK ratio % ([9]; MIA PaCa-2 + EGF, 2 h, trametinib 1 μM, AMG-510 1 μM, calmidazolium 20 μM, DT-061 20 μM, combination each 10 μM, fluphenazine mustard 20 μM, replicates N1-N3): 84.4108% and 54.7097% and 80.94%
FC(F)(F)c1ccc2c(c1)N(CCCN1CCN(CCCl)CC1)c1ccccc1S2 [fluphenazine mustard] |  |  | even stronger effect than CMZ | 17.9 and 3.8 and 4.3 and 7 and 12.9 | 9.18 | 72.64 | 13.1 and 5.3 and 9.9 and 9.6 | 9.48 | 65.64 | 0.7502 and 0.7758 and 0.7975 and 1.298 | 0.91 | 1.798* and 1.478 and 1.405 and 0.9115 | 1.26 | 40 | normalized pERK/ERK ratio % [9]: 46.7324% and 34.232% and 39.0258%; 2D monolayer DSS3 (MDA-MB-231 cells [10]; Mean): 32.27; 2D monolayer DSS3 (MDA-MB-231 cells [10]; replicates N1-N3): 27.5 and 31.9 and 37.4; 2D monolayer DSS3 (MIA PaCa-2 cells; Mean): 65.73; 2D monolayer DSS3 (MIA PaCa-2 cells; replicates N1-N3): 64.1 and 65.3 and 67.8; 2D monolayer DSS3 (HEK-293 EBNA cells; Mean): 5.4; 2D monolayer DSS3 (HEK-293 EBNA cells; replicates N1-N3): 6.1 and 5.1 and 5
CN[C@@H]1C[C@H]2O[C@@](C)([C@@H]1OC)n1c3ccccc3c3c4c(c5c6ccccc6n2c5c31)C(=O)NC4 [staurosporine] | 5.7754 fold change and 5.5715 fold change and 6.4904 fold change and 6.254 fold change | 6.02 |  |  |  |  |  |  |  |  |  |  |  |  | 
